These results are taken from patent publication US20100317047A1, “Biomarkers of Hemorrhagic Shock” (THE GENERAL HOSPITAL CORPORATION, priority 2009, published 2010).

One assay concerns 22.7 kDa protein. Nature of the assay: SELDI-TOF MS serum protein profiling in lethal hemorrhagic shock model. It is filed as in vivo. The settings on record: rat serum, 24 hours after VPA 300 mg/kg via femoral vein after hemorrhage; p<0.05 vs HS, n=5. On the procedure:
(§1) An animal model of HS was used. Male Wistar-Kyoto rats (254.12±2.71 grams, Harlan, Indianapolis, Ind.) were used in the lethal model of hemorrhagic shock (Shults et al., J. Trauma. 2008; 64(3): 629-638). Each animal's estimated blood volume was calculated using the formula: [estimated blood volume (mL)=weight (g)×0.06 (mL/g)+0.77]. About 1.3 mL of blood was manually drawn at the beginning and end of hemorrhage for analysis (included in the total hemorrhage calculation). The animals were hemorrhaged (40% of their calculated total blood volume) via a femoral arterial catheter over 10 minutes, followed by a 20% blood volume venous bleed over the next 50 minutes. Bleeding was performed using Kent Scientific adjustable pumps (Kent Scientific Corporation, NJ). VPA (300 mg/kg) was administered via a femoral vein catheter after completion of hemorrhage. Blood pressure was monitored continuously during the experiment. The mean arterial pressure (MAP) in animals that were subjected to hemorrhage dropped sharply after bleeding to approximately 20 mm Hg. […]
ProteinChip profiling was performed on CM10 ProteinChip arrays (Ciphergen Biosystems, Fremont Calif.), as recommended by the manufacturer. […] The arrays were then inserted into a ProteinChip (Enterprise edition) TOF-MS and read at an optimized laser setting of 2000 nJ-5000 nJ. […]

For assay [1], the system named is hemorrhagic shock. The settings on record: rats; Shults et al. 2008, Li et al. 2008, WO 2007117272; cited from earlier work.
Assay [2] has as its system claudin-3. As to the kind of experiment: Western blot of intestinal claudin-3 protein in hemorrhagic shock model. The settings on record: rat intestinal lysate, 1, 6 and 24 hours after VPA treatment, vs HS 1 hour; n=3. It is filed as in vivo. On the procedure: as §1, with “experiment.” for “experiment. The mean arterial pressure (MAP) in animals that were subjected to hemorrhage dropped sharply after bleeding to approximately 20 mm Hg.”
Claudin-3 is a TJ protein that has important roles in establishing epithelial and endothelial barriers. To find out whether HS and VPA treatment affect claudin-3 protein in TJ of epithelial cells, protein expression was analyzed in intestinal tissue obtained from sham, HS 1 hour (1 hour after hemorrhagic shock), and VPA-treated animals (1 hour, 6 hours, and 24 hours after treatment). […]

Assay [3] deals with hemorrhagic shock. Nature of the assay: Survival in lethal model of hemorrhagic shock. Conditions: rats, 60% blood volume hemorrhage, VPA 300 mg/kg; none of the untreated animals survived. It counts as in vivo, rat. On the procedure: as §1, with “Hg. Blood was drawn at baseline (BL, before hemorrhage), hemorrhagic shock (HS), and 24 hours after VPA treatment from individual rats for protein biomarker screening and identification.” for “Hg.”

Assay [4] concerns claudin-3. Nature of the assay: iTRAQ quantification of serum claudin-3 peptide in hemorrhagic shock model. It is filed as in vivo. The settings on record: rat serum, 24 hours post-VPA treatment (300 mg/kg) vs post-hemorrhagic shock; BL to HS ratio 0.323. On the procedure:
as §1
Immunodepletion of serum abundant proteins was performed as follows. […] Column performance was monitored by sodium dodecyl sulphate-polyacrylamide gel electrophoresis (SDS-PAGE) followed by Coomassie Blue staining (BioBlue, BioRad). […]

The test system of assay [5] is claudin-3. As to the kind of experiment: Western blot of serum claudin-3 in hemorrhagic shock model. It is filed as in vivo. The settings on record: rat serum, 1 hour following VPA treatment; HS 1 hour group showed ~23 kDa and ~11 kDa bands. (In general: A western blot detects proteins with antibodies after separation by electrophoresis.)
Experimental: An animal model of HS was used. Male Wistar-Kyoto rats (254.12±2.71 grams, Harlan, Indianapolis, Ind.) were used in the lethal model of hemorrhagic shock (Shults et al., J. Trauma. 2008; 64(3): 629-638). Each animal's estimated blood volume was calculated using the formula: [estimated blood volume (mL)=weight (g)×0.06 (mL/g)+0.77]. About 1.3 mL of blood was manually drawn at the beginning and end of hemorrhage for analysis (included in the total hemorrhage calculation). The animals were hemorrhaged (40% of their calculated total blood volume) via a femoral arterial catheter over 10 minutes, followed by a 20% blood volume venous bleed over the next 50 minutes. Bleeding was performed using Kent Scientific adjustable pumps (Kent Scientific Corporation, NJ). VPA (300 mg/kg) was administered via a femoral vein catheter after completion of hemorrhage. Blood pressure was monitored continuously during the experiment. […]
To assess whether claudin-3 is a potential biomarker, independent serum samples were taken of sham (no hemorrhage and no treatment), HS 1 hour (1 hour following hemorrhagic shock), and VPA 1 hour (1 hour following VPA treatment) from individual rats and the level of the candidate biomarker was determined by Western blot with anti-claudin-3 antibody. […]
The test system of a further assay is claudin-3 mRNA. As to the kind of experiment: RT-PCR of intestinal claudin-3 mRNA in hemorrhagic shock model. It counts as in vivo. The settings on record: rat intestine, 1, 6 and 24 hours; β-actin internal control, n=3. On the procedure:
To assess whether gene expression of claudin-3 responds to HS and VPA treatment, the mRNA expression of rat intestines among the groups of sham, HS and VPA treatment was compared at 1, 6 and 24 hours using RT-PCR methods.

In the case of `CCCC(CCC)C(=O)O` [VPA, Valproic acid], the “serum level of 22.7 kDa protein (SELDI-TOF MS peak intensity) vs HS” value with 22.7 kDa protein was “down-regulated in the VPA group sharply”. Also, in the assay with hemorrhagic shock [1], the “survival after lethal HS (literature)” value was “improves survival after lethal HS in rats”. Further, the “intestinal claudin-3 protein level by Western blot” value with claudin-3 [2] is “significantly attenuated the HS-induced reduction of claudin-3”. The “survival after hemorrhagic shock” value in the assay with hemorrhagic shock [3] was “survived”. Moreover, the “ratio of VPA to HS, claudin-3 peptide iTRAQ tag intensity in serum” value in the assay on claudin-3 [4] came out at 0.425. The “serum claudin-3 by Western blot” value in the assay with claudin-3 [5] is “no claudin-3 was detected”. Moreover, the “intestinal claudin-3 mRNA expression by RT-PCR” value with claudin-3 mRNA is given as “did not significantly change claudin-3 mRNA expression”.
